Assay results as given in patent publication US20110040086A1, “Novel Beta-Lactam Antibiotics, Methods for Their Production, and Their Use” (DRITTE PATENTPORTFOLIO BETEILIGUNGSGESELLSCHAFT MB, priority 2007, published 2011).

Tests used:
S. aureus 39105 = test: agar diffusion test (Test System II, multi-resistant germs); assay type: cell-based, Staphylococcus aureus; parameters: key: r = resistant (no detectable zone of inhibition)
Method in brief: (§1)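 Stepped amounts of each substance (10, 50, 100 μg) were applied to carrier discs from methanol or water according to solubility. These were laid on Müller-Hinton agar II inoculated at McFarland 0.5, and zones of inhibition were read following overnight incubation (18-20 h) at 37 °C.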

S. aureus 526 = test: as above; assay type: cell-based, Staphylococcus aureus; parameters: key: r = resistant (no detectable zone of inhibition)
Method in brief: as §1

S. aureus 36881 = test: as above; assay type: cell-based, Staphylococcus aureus; parameters: key: r = resistant (no detectable zone of inhibition)
Method in brief: as §1

S. aureus 33490 = test: as above; assay type: cell-based, Staphylococcus aureus; parameters: key: r = resistant (no detectable zone of inhibition)
Method in brief: as §1

[1] = test system: S. aureus North Germany strain; test: as above; assay type: cell-based, Staphylococcus aureus; parameters: key: r = resistant (no detectable zone of inhibition)
Method in brief: as §1

S. aureus 34289 = test: as above; assay type: cell-based, Staphylococcus aureus; parameters: key: r = resistant (no detectable zone of inhibition)
Method in brief: as §1

S. aureus 520 = test: as above; assay type: cell-based, Staphylococcus aureus; parameters: key: r = resistant (no detectable zone of inhibition)
Method in brief: as §1

S. aureus 38418 = test: as above; assay type: cell-based, Staphylococcus aureus
Method in brief: as §1

S. aureus ATCC 6538 = test: as above; assay type: cell-based, Staphylococcus aureus
Method in brief: as §1

S. epidermidis 1071 = test: as above; assay type: cell-based, Staphylococcus epidermidis; parameters: key: r = resistant (no detectable zone of inhibition)
Method in brief: as §1

S. epidermidis 563 = test: as above; assay type: cell-based, Staphylococcus epidermidis; parameters: key: r = resistant (no detectable zone of inhibition)
Method in brief: as §1

S. epidermidis 847 = test: as above; assay type: cell-based, Staphylococcus epidermidis; parameters: key: r = resistant (no detectable zone of inhibition)
Method in brief: as §1

S. epidermidis 1068 = test: as above; assay type: cell-based, Staphylococcus epidermidis; parameters: key: r = resistant (no detectable zone of inhibition)
Method in brief: as §1

[2] = test system: Staphylococcus aureus ATCC 6538; test: mouse infected with Staphylococcus aureus infection model (survival); assay type: in vivo, BALB/c mice
Method in brief: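 Survival model: S. aureus grown to extinction 0.6 at 550 nm and injected i.p. (10 μl/g body weight) into cyclophosphamide-pretreated BALB/c mice (250 then 100 mg/kg i.p.), ≥3 animals per arm. Test antibiotic dosed i.p. at 30 min and again later at the same concentration, vehicle PBS/3% DMSO.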

E. faecalis 945 = test: agar diffusion test (Test System II, multi-resistant germs); assay type: cell-based, Enterococcus faecalis; parameters: key: r = resistant (no detectable zone of inhibition)
Method in brief: as §1

B. subtilis AWD 166 = test: agar diffusion test (antimicrobial effect); assay type: cell-based, Bacillus subtilis
Method in brief: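 Inhibition zone diameters (mm) read after 20 h incubation at 37 °C. Discs carried 10 μg, 50 μg or 100 μg of test substance, dissolved in methanol or distilled water, on agar inoculated with B. subtilis AWD 166 for dense but separate colonies.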

Substance: 7-[2-(2-carbamoyl-3,6-dioxocyclohexa-1,4-dienylamino)-2-(4-hydroxyphenyl)-acetylamino]-desacetoxycephalosporanic acid [1b]
- Diameter of zone of inhibition (S. aureus 39105; Quantity n 0.019): r
- Diameter of zone of inhibition (S. aureus 39105; Quantity n 0.1): 12 mm
- Diameter of zone of inhibition (S. aureus 39105; Quantity n 0.19): 18 mm
- Diameter of zone of inhibition (S. aureus 526; Quantity n 0.019): r
- Diameter of zone of inhibition (S. aureus 526; Quantity n 0.1): r
- Diameter of zone of inhibition (S. aureus 526; Quantity n 0.19): 12 mm
- Diameter of zone of inhibition (S. aureus 36881; Quantity n 0.019): r
- Diameter of zone of inhibition (S. aureus 36881; Quantity n 0.1): 12 mm
- Diameter of zone of inhibition (S. aureus 36881; Quantity n 0.19): 18 mm
- Diameter of zone of inhibition (S. aureus 33490; Quantity n [μmol] 0.019): r
- Diameter of zone of inhibition (S. aureus 33490; Quantity n [μmol] 0.1): 14 mm
- Diameter of zone of inhibition (S. aureus 33490; Quantity n [μmol] 0.19): 20 mm
- Diameter of zone of inhibition ([1]; Quantity n 0.019): r
- Diameter of zone of inhibition ([1]; Quantity n 0.1): 8 mm
- Diameter of zone of inhibition ([1]; Quantity n 0.19): 12 mm
- Diameter of zone of inhibition (S. aureus 34289; Quantity n [mol] 0.019): r
- Diameter of zone of inhibition (S. aureus 34289; Quantity n [mol] 0.1): r
- Diameter of zone of inhibition (S. aureus 34289; Quantity n [mol] 0.19): 12 mm
- Diameter of zone of inhibition (S. aureus 520; Quantity n [mol] 0.019): r
- Diameter of zone of inhibition (S. aureus 520; Quantity n [mol] 0.1): r
- Diameter of zone of inhibition (S. aureus 520; Quantity n [mol] 0.19): r
- Diameter of zone of inhibition (S. aureus 38418; Quantity n [mol] 0.019): 16 mm
- Diameter of zone of inhibition (S. aureus 38418; Quantity n [mol] 0.1): 24 mm
- Diameter of zone of inhibition (S. aureus 38418; Quantity n [mol] 0.19): 26 mm
- Diameter of zone of inhibition (S. aureus ATCC 6538; Quantity n 0.019): 16 mm
- Diameter of zone of inhibition (S. aureus ATCC 6538; Quantity n 0.1): 24 mm
- Diameter of zone of inhibition (S. aureus ATCC 6538; Quantity n 0.19): 28 mm
- Diameter of zone of inhibition (S. epidermidis 1071; Quantity n 0.019): r
- Diameter of zone of inhibition (S. epidermidis 1071; Quantity n 0.1): 18 mm
- Diameter of zone of inhibition (S. epidermidis 1071; Quantity n 0.19): 22 mm
- Diameter of zone of inhibition (S. epidermidis 563; Quantity n 0.019): r
- Diameter of zone of inhibition (S. epidermidis 563; Quantity n 0.1): 14 mm
- Diameter of zone of inhibition (S. epidermidis 563; Quantity n 0.19): 20 mm
- Diameter of zone of inhibition (S. epidermidis 847; Quantity n [mol] 0.019): r
- Diameter of zone of inhibition (S. epidermidis 847; Quantity n [mol] 0.1): 10 mm
- Diameter of zone of inhibition (S. epidermidis 847; Quantity n [mol] 0.19): 12 mm
- Diameter of zone of inhibition (S. epidermidis 1068; Quantity n 0.019): r
- Diameter of zone of inhibition (S. epidermidis 1068; Quantity n 0.1): 16 mm
- Diameter of zone of inhibition (S. epidermidis 1068; Quantity n 0.19): 20 mm
- Survival/tested mice n/n ([2]; 2 × 1.0 mg (50 mg/kg) i.p.): 6/6
- Diameter of zone of inhibition (E. faecalis 945; Quantity n 0.019): r
- Diameter of zone of inhibition (E. faecalis 945; Quantity n 0.1): r
- Diameter of zone of inhibition (E. faecalis 945; Quantity n 0.19): r
- Diameter of zone of inhibition (B. subtilis AWD 166; Quantity n 0.019): 22 mm
- Diameter of zone of inhibition (B. subtilis AWD 166; Quantity n 0.1): 30 mm
- Diameter of zone of inhibition (B. subtilis AWD 166; Quantity n 0.19): 32 mm

Substance: 7-[2-(2-ethoxycarbonyl-3,6-dioxocyclohexa-1,4-dienylamino)-2-(4-hydroxyphenyl)-acetylamino]-desacetoxycephalosporanic acid [1d]
- Diameter of zone of inhibition (S. aureus 39105; Quantity n 0.029): r
- Diameter of zone of inhibition (S. aureus 39105; Quantity n 0.14): r
- Diameter of zone of inhibition (S. aureus 39105; Quantity n 0.29): 14 mm
- Diameter of zone of inhibition (S. aureus 526; Quantity n 0.029): r
- Diameter of zone of inhibition (S. aureus 526; Quantity n 0.14): r
- Diameter of zone of inhibition (S. aureus 526; Quantity n 0.29): r
- Diameter of zone of inhibition (S. aureus 36881; Quantity n 0.029): r
- Diameter of zone of inhibition (S. aureus 36881; Quantity n 0.14): 14 mm
- Diameter of zone of inhibition (S. aureus 36881; Quantity n 0.29): 18 mm
- Diameter of zone of inhibition (S. aureus 33490; Quantity n [μmol] 0.029): r
- Diameter of zone of inhibition (S. aureus 33490; Quantity n [μmol] 0.14): 14 mm
- Diameter of zone of inhibition (S. aureus 33490; Quantity n [μmol] 0.29): 16 mm
- Diameter of zone of inhibition ([1]; Quantity n 0.029): r
- Diameter of zone of inhibition ([1]; Quantity n 0.14): 10 mm
- Diameter of zone of inhibition ([1]; Quantity n 0.29): 12 mm
- Diameter of zone of inhibition (S. aureus 34289; Quantity n [mol] 0.029): r
- Diameter of zone of inhibition (S. aureus 34289; Quantity n [mol] 0.14): r
- Diameter of zone of inhibition (S. aureus 34289; Quantity n [mol] 0.29): r
- Diameter of zone of inhibition (S. aureus 520; Quantity n [mol] 0.029): r
- Diameter of zone of inhibition (S. aureus 520; Quantity n [mol] 0.14): r
- Diameter of zone of inhibition (S. aureus 520; Quantity n [mol] 0.29): r
- Diameter of zone of inhibition (S. aureus 38418; Quantity n [mol] 0.029): 10 mm
- Diameter of zone of inhibition (S. aureus 38418; Quantity n [mol] 0.14): 20 mm
- Diameter of zone of inhibition (S. aureus 38418; Quantity n [mol] 0.29): 24 mm
- Diameter of zone of inhibition (S. aureus ATCC 6538; Quantity n 0.029): 14 mm
- Diameter of zone of inhibition (S. aureus ATCC 6538; Quantity n 0.14): 22 mm
- Diameter of zone of inhibition (S. aureus ATCC 6538; Quantity n 0.29): 26 mm
- Diameter of zone of inhibition (S. epidermidis 1071; Quantity n 0.029): r
- Diameter of zone of inhibition (S. epidermidis 1071; Quantity n 0.14): 14 mm
- Diameter of zone of inhibition (S. epidermidis 1071; Quantity n 0.29): 18 mm
- Diameter of zone of inhibition (S. epidermidis 563; Quantity n 0.029): r
- Diameter of zone of inhibition (S. epidermidis 563; Quantity n 0.14): 12 mm
- Diameter of zone of inhibition (S. epidermidis 563; Quantity n 0.29): 18 mm
- Diameter of zone of inhibition (S. epidermidis 847; Quantity n [mol] 0.029): r
- Diameter of zone of inhibition (S. epidermidis 847; Quantity n [mol] 0.14): 10 mm
- Diameter of zone of inhibition (S. epidermidis 847; Quantity n [mol] 0.29): 14 mm
- Diameter of zone of inhibition (S. epidermidis 1068; Quantity n 0.029): r
- Diameter of zone of inhibition (S. epidermidis 1068; Quantity n 0.14): 12 mm
- Diameter of zone of inhibition (S. epidermidis 1068; Quantity n 0.29): 14 mm
- Survival/tested mice n/n ([2]; 2 × 0.5 mg (25 mg/kg) i.p.): 4/6
- Diameter of zone of inhibition (E. faecalis 945; Quantity n 0.029): r
- Diameter of zone of inhibition (E. faecalis 945; Quantity n 0.14): r
- Diameter of zone of inhibition (E. faecalis 945; Quantity n 0.29): r
- Diameter of zone of inhibition (B. subtilis AWD 166; Quantity n 0.029): 22 mm
- Diameter of zone of inhibition (B. subtilis AWD 166; Quantity n 0.14): 30 mm
- Diameter of zone of inhibition (B. subtilis AWD 166; Quantity n 0.29): 34 mm
